Source: ChEMBL document CHEMBL1201862, “PubChem BioAssay data set” (2004)
Several values for one entry are separate records, joined by “and”; a condition that tells them apart may be missing. Equal entries are not always repeated. Activity calls are given as the source filed them.

Experiments:
[1] = target: Epstein-Barr nuclear antigen 1 (Epstein-Barr virus (strain B95-8) (HHV-4) (Human herpesvirus 4), UniProt P03211); experiment: EBNA-1 inhibitors, dose response, biochemical, fluorescence polarization, 1536-well (AID 2381); set-up: species or system human gammaherpesvirus 4;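 also: fluorescence polarization of a Cy5 DNA probe bound by EBNA-1 protein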
Chain of Epstein-Barr nuclear antigen 1 (P03211 whole entry): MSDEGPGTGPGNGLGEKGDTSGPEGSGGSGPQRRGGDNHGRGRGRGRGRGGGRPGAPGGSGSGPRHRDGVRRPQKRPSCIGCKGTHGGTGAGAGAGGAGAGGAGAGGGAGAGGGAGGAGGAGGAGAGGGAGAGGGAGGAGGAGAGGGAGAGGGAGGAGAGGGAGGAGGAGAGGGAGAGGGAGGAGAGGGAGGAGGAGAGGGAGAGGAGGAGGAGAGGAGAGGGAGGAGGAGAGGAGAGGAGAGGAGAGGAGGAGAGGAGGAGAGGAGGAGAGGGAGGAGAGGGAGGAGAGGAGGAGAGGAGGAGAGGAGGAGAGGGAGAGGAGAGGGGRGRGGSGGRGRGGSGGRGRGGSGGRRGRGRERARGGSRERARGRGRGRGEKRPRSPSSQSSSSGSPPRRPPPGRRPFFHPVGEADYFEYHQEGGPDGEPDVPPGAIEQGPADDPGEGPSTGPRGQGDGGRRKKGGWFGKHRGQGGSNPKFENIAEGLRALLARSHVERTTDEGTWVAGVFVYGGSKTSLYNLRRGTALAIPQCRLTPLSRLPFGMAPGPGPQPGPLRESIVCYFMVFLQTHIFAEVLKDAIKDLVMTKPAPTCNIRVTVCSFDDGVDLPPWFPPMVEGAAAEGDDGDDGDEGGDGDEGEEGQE

[2] = target: Lytic switch protein BZLF1 (Epstein-Barr virus (strain B95-8) (HHV-4) (Human herpesvirus 4), UniProt P03206); experiment: EBV ZTA inhibitors, dose response, counter-screen for EBNA-1 inhibitor project, biochemical, fluorescence polarization, Epstein-Barr virus, 1536-well (AID 2377); set-up: species or system human gammaherpesvirus 4;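 also: fluorescence polarization of Cy5-labelled ZRE DNA probe bound by purified Zta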
Chain of Lytic switch protein BZLF1 (P03206 whole entry): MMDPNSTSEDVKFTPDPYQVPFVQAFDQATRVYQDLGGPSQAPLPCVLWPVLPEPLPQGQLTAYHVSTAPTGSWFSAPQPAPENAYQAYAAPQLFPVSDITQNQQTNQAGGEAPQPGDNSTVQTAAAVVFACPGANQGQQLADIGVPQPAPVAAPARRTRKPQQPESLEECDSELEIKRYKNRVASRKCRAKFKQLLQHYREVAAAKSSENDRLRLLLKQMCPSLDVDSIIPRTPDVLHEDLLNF

BJ [3] = experiment: cytotoxicity toward BJ-TERT fibroblasts, dose response, cell-based, RAS-independent, luminescence (AID 1933); format: functional; conditions: Homo sapiens
BJ [4] = experiment: cells; format: functional, cell-based; conditions: Homo sapiens
[5] = target: Heat shock protein HSP 90-alpha (Homo sapiens, UniProt P07900); experiment: Luminescence-based dose response biochemical high throughput screening assay for inhibitors of the Heat Shock Protein 90 (HSP90). [Related pubchem assays: 1831 (Summary AID.), 1846 (Confirmation screen.), 1789 (Primary screen.)]
BJ [6] = experiment: cytotoxicity toward BJ-TERT-LT-ST fibroblasts, dose response, cell-based, RAS-independent, luminescence (AID 1935); format: functional; conditions: Homo sapiens;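 also: BJ fibroblasts immortalized with TERT plus LT and ST oncogenes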
[7] = cytotoxicity toward DRD oncogenic fibroblasts, dose response, cell-based, non-viral oncogenic, luminescence (AID 1934); format: functional; conditions: Homo sapiens
BJ [8] = experiment: cytotoxicity toward Ras-transformed BJeLR fibroblasts, dose response, cell-based, alamar blue fluorescence, cherrypicked samples (AID 2631); format: functional; conditions: Homo sapiens;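 also: confirmatory dose-response assay in RAS-dependent BJ fibroblasts engineered with TERT, LT and ST, with cytotoxicity read by fluorescence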
[9] = Luminescent dose response cell-based high throughput screening assay for inhibitors of the Janus kinase 2 mutant JAK2V617F. [Related pubchem assays: 1446 (Primary screen.), 1521 (Confirmation assay.), 1486 (Counter screen.)]; format: functional
[10] = target: T1, Tyrosine-protein phosphatase non-receptor type 7 (Homo sapiens, UniProt P35236); experiment: inhibitors of human HePTP phosphatase, […], biochemical, absorbance, leukemia target (AID 521); format: functional
T1 sequence (P35236 whole entry): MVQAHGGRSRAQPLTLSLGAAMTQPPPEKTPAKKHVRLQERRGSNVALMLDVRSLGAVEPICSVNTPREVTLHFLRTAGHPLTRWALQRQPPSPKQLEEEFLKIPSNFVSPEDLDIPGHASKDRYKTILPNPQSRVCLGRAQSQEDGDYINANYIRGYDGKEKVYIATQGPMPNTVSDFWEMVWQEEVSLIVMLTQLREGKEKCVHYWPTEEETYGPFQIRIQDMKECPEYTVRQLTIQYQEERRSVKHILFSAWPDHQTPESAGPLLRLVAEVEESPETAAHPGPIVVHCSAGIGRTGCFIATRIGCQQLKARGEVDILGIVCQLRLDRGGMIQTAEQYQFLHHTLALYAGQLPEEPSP

[11] = target: Voltage-gated inwardly rectifying potassium channel KCNH2 (Homo sapiens, UniProt Q12809); experiment: hERG protection from proarrhythmic block, potency, dose response, cell-based, thallium flux (AID 2121); format: ADME
Chain of Voltage-gated inwardly rectifying potassium channel KCNH2 (Q12809 whole entry): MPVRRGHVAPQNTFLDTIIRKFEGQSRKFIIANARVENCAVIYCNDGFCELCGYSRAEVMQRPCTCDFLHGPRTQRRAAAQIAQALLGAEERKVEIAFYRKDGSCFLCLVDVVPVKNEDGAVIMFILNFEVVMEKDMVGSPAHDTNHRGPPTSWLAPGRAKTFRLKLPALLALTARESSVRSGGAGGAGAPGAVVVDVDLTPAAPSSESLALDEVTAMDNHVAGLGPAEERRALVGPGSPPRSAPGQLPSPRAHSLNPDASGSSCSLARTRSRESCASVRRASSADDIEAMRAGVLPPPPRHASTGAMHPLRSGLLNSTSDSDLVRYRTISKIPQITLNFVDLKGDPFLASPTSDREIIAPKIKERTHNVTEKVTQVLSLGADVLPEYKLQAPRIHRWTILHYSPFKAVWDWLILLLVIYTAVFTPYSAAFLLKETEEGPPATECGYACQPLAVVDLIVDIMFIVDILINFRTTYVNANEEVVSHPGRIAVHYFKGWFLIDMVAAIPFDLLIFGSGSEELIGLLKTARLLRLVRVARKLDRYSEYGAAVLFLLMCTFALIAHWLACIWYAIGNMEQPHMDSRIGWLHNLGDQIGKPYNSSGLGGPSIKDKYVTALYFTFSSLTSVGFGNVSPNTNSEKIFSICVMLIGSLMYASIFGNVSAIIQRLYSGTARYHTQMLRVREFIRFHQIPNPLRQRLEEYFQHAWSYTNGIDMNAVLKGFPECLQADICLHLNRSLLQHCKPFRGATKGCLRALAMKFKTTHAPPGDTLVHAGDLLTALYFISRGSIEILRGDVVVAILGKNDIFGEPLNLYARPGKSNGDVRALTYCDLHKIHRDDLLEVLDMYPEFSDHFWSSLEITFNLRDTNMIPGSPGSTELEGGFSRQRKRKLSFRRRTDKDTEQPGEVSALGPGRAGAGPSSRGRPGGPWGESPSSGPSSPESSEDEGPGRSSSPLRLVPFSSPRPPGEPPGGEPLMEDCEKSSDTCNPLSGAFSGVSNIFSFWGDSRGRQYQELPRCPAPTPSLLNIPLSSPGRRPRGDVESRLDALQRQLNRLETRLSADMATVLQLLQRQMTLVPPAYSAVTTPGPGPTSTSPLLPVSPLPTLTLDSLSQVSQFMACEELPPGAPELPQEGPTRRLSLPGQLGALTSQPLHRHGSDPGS

[12] = target: T2, Short transient receptor potential channel 4 (Mus musculus, UniProt Q9QUQ5); experiment: mouse TRPC4 channel inhibitors, dose response, cell-based, HEK293 TRPC4/mu-opioid, Fluo-4 calcium (AID 434942); format: functional;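 also: potency of inhibitors blocking the TRPC4 calcium response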
T2 sequence (Q9QUQ5 whole entry): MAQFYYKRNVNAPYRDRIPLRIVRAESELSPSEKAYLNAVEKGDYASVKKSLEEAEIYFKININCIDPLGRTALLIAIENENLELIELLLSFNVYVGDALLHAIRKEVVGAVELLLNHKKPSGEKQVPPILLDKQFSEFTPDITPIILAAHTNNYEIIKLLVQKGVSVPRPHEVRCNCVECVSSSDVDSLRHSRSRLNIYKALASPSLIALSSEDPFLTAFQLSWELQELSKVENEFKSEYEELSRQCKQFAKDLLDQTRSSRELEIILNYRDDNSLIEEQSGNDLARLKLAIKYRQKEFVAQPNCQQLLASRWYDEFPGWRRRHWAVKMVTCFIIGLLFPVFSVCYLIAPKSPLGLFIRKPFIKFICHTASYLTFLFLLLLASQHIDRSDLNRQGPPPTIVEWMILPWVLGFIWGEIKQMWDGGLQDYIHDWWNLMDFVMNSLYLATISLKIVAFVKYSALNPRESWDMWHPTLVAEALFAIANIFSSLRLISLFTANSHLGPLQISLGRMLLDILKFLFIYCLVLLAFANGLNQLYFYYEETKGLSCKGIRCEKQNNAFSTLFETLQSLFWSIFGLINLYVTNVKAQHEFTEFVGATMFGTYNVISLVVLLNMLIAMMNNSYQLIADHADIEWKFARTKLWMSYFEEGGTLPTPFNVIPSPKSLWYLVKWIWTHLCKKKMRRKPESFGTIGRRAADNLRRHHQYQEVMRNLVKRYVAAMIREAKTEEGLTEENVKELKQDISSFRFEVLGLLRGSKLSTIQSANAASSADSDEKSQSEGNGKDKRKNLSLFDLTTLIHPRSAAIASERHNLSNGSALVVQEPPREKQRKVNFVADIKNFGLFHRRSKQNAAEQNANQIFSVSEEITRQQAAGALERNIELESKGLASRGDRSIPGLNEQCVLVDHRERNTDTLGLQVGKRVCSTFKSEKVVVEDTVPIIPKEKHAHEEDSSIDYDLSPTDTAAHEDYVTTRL

[13] = target: T3, Sphingosine 1-phosphate receptor 2 (Homo sapiens, UniProt O95136); experiment: Dose Response Cell-Based Assay for Agonists of the Sphingosine 1-Phosphate Receptor 2 (S1P2): Purchased Analogues. [Related pubchem assays: 1192, 373, 439 ]; format: functional
T3 sequence (O95136 whole entry): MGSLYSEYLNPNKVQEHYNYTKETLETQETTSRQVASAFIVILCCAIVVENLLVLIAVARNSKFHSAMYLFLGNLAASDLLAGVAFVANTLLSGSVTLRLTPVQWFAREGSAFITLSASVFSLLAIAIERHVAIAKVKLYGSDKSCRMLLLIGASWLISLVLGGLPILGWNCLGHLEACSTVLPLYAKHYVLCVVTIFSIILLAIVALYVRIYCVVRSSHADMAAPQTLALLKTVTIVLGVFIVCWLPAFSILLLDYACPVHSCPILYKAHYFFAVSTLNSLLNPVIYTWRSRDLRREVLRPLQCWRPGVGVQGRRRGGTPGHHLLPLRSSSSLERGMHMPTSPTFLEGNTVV

[14] = target: Sphingosine 1-phosphate receptor 1 (Homo sapiens, UniProt P21453); experiment: Dose Response Cell-Based Assay for Agonists of the Sphingosine 1-Phosphate Receptor 1 (S1P1): Purchased Analogues. [Related pubchem assays: 1192, 373, 439 ]; format: functional
Chain of Sphingosine 1-phosphate receptor 1 (P21453 whole entry): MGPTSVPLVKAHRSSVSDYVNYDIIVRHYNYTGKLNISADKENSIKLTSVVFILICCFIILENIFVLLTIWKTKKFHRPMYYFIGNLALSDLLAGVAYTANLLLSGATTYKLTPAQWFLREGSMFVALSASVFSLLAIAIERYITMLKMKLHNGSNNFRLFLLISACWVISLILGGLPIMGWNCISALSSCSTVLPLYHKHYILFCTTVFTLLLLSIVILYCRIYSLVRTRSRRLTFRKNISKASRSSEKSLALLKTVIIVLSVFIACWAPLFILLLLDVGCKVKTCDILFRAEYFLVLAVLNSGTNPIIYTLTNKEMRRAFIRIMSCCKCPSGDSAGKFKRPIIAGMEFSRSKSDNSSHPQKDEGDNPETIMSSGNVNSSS

[15] = target: Sphingosine 1-phosphate receptor 3 (Homo sapiens, UniProt Q99500); experiment: Dose Response Cell-Based Assay for Agonists of the Sphingosine 1-Phosphate Receptor 3 (S1P3): Purchased Analogues. [Related pubchem assays: 373, 439 ]; format: functional
Chain of Sphingosine 1-phosphate receptor 3 (Q99500 whole entry): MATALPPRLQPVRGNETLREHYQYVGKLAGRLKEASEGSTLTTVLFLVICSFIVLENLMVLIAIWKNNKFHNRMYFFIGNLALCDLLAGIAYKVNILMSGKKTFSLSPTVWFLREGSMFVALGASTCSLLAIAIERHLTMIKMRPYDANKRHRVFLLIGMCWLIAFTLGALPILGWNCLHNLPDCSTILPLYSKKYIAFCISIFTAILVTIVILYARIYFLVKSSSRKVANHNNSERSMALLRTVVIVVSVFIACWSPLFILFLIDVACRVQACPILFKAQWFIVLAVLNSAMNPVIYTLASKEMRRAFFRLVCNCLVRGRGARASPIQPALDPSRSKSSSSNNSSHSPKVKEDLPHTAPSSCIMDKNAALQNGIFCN

[16] = target: Bifunctional protein GlmU (Mycobacterium tuberculosis, UniProt P9WMN3); experiment: Inhibitors of Mycobacterial Glucosamine-1-phosphate acetyl transferase (GlmU). Secondary screen.; set-up: species or system Mycobacterium tuberculosis H37Rv
Chain of Bifunctional protein GlmU (P9WMN3 whole entry): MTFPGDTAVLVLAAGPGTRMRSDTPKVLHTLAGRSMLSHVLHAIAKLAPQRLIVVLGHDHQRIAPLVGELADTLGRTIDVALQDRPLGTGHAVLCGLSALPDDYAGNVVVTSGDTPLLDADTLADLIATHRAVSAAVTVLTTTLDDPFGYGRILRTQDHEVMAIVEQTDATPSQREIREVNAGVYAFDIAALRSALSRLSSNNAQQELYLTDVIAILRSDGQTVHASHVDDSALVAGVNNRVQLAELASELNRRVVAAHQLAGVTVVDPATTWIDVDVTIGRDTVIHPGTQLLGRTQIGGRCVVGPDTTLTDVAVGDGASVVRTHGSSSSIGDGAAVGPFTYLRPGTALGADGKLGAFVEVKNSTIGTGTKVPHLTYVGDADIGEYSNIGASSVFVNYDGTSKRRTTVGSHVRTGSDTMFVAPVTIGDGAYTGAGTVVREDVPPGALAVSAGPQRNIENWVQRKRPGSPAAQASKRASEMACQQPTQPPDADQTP

[17] = target: Induced myeloid leukemia cell differentiation protein Mcl-1 (Homo sapiens, UniProt Q07820); format: functional
Chain of Induced myeloid leukemia cell differentiation protein Mcl-1 (Q07820 whole entry): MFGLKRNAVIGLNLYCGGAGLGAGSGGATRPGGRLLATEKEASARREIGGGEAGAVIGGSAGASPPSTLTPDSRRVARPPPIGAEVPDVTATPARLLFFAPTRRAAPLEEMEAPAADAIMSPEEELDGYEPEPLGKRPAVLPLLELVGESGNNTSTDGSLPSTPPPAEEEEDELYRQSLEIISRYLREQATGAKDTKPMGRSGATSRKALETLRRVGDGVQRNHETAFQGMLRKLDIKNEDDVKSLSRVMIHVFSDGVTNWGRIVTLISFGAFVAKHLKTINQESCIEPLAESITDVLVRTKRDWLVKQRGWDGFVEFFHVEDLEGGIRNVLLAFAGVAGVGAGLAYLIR

[18] = target: Mannose-6-phosphate isomerase (Homo sapiens, UniProt P34949); experiment: inhibitors of human PMI, primary screen, biochemical, fluorescence intensity, coupled assay (AID 1209)
Chain of Mannose-6-phosphate isomerase (P34949 whole entry): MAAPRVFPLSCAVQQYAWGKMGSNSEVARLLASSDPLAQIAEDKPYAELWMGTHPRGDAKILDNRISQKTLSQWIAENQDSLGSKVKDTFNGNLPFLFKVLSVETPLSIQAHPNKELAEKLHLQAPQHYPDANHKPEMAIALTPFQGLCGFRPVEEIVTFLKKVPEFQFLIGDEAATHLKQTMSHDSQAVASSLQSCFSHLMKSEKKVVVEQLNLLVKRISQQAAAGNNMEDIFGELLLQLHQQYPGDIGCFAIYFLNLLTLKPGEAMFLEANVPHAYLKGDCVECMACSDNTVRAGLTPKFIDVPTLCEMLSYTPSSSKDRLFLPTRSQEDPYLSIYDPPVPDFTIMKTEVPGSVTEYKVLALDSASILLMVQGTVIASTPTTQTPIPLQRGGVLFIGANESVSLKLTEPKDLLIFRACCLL

Vero = Vero cell cytotoxicity, cytotoxicity control for flavivirus capping enzyme inhibitors (AID 588742); format: functional; conditions: Chlorocebus sabaeus
[19] = target: T3, Sphingosine 1-phosphate receptor 2; experiment: Dose Response Cell Based Assay for Agonists of the S1P2 Receptor. [Related pubchem assays: 729, 736, 843 ]; format: functional

With COc1cccc(OC)c1C(=O)Nc1nc2cc3c(cc2s1)OCO3 the IC50 [1] was 15.5 µM (not active) and the IC50 [2] was > 111 µM (not active).
For CNC(=S)N/N=C/c1ccc(-c2ccc(C(=O)O)cc2)o1, the EC50 (BJ [3]) was 4.2 µM (active), the EC50 (BJ [4]) was 5.08 µM (active) and the IC50 [5] was 8.05 µM (active). For the same compound, the EC50 (BJ [6]) was 17 µM (active), the EC50 [7] was 5.6 µM (active) and the EC50 (BJ [8]) was > 133 µM (inactive).
In the case of Cc1ccc(Nc2nc(N)nc(CCl)n2)cc1, the IC50 [9] was 1.75 µM (active).
For CC(C)(C)OC(=O)N1CC(O)CC1C(=O)OCC(=O)c1ccc(Cl)cc1 (stereo not given), the IC50 [10] was > 100 µM (not active).
With O=C(O)c1ccc(Cl)cc1Nc1nc2cc(Cl)ccc2o1 the EC50 [11] was 11.3 µM (active) and 12 µM (active) and the EC50 [12] was 5.31 µM (active).
For Cc1cc(C(=O)N2C(C)CCCC2C)no1 (stereo not given), the EC50 [13] was > 10 µM (not active), the EC50 [14] was > 50 µM (not active) and the EC50 [15] was > 50 µM (not active).
In the case of O=C(/C=C/c1ccc(O)c(O)c1)O[C@H](Cc1ccc(O)c(O)c1)C(=O)O [ROSMARINIC ACID], the IC50 [16] was 84.9 µM (active) and the IC50 [17] was 2.03 µM (active).
For CC(=O)Oc1ccc2c(=O)c(Oc3ccccc3)c(C)oc2c1OC(C)=O, the IC50 [18] was 44.8 µM (active) and the CC50 (Vero) was 38.1 µM (active).
With CCOC(=O)CN(C(=O)CSc1nnc(COc2ccc(OC)cc2)n1C)c1ccccc1 the EC50 [19] was > 50 µM (not active).
